# From ChEMBL document CHEMBL5506064, “Discovery of ITI-333, a Novel Orally Bioavailable Molecule Targeting Multiple Receptors for the Treatment of Pain and Other Disorders” (J Med Chem, 2024)
# Activity calls are given as the source filed them. No cut-off for these calls is given here.
# Key:
# [1] = target: Sodium-dependent serotonin transporter (Homo sapiens) (UniProt P31645); assay: Displacement of [3H]-imipramine from human 5-HT transporter expressed in CHO cell membrane assessed as inhibition of radioligand binding at 100 nM incubated for 60 mins by competition binding based scintillation counter analysis relative to control; type: cell membranes
# Sequence of Sodium-dependent serotonin transporter (Homo sapiens) (P31645 whole entry, looked up): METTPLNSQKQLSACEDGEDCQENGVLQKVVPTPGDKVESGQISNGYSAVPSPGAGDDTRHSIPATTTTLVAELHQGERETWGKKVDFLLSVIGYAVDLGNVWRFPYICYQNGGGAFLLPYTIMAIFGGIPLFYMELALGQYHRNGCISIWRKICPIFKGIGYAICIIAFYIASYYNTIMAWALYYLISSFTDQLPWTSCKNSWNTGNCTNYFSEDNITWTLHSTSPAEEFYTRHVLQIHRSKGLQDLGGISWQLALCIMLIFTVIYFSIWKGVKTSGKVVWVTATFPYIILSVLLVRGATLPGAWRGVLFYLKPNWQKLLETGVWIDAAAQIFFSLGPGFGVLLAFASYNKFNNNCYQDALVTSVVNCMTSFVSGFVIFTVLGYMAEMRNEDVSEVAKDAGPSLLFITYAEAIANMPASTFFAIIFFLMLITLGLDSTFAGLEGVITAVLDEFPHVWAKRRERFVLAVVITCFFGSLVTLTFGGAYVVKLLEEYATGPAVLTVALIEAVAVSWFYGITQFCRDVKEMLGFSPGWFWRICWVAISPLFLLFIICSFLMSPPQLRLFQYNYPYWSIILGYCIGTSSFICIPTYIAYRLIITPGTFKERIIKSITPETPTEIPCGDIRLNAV
# [2] = target: D(1A) dopamine receptor (Homo sapiens) (UniProt P21728); assay: Displacement of [3H]SCH-23390 from human dopamine D1 receptor expressed in CHO cell membrane assessed as inhibition of radioligand binding at 100 nM incubated for 60 mins by competition binding based scintillation counter analysis relative to control; type: cell membranes
# Sequence of D(1A) dopamine receptor (Homo sapiens) (P21728 whole entry): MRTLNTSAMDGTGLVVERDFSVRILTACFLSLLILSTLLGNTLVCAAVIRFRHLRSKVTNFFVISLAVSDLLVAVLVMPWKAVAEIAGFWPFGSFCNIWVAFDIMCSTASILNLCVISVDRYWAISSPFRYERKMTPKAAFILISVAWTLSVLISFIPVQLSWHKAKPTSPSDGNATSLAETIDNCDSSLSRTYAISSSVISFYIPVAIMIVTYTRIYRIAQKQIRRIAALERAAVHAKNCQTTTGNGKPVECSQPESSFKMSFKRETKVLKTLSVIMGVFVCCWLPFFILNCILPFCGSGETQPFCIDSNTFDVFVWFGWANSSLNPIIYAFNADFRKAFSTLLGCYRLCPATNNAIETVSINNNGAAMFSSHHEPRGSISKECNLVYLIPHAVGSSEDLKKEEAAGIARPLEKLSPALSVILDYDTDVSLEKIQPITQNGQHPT
# [3] = target: 5-hydroxytryptamine receptor 2A (Homo sapiens) (UniProt P28223); assay: Displacement of [125I]DOI from human 5-HT2A receptor expressed in HEK293 cell membrane assessed as inhibition of radioligand binding at 100 nM incubated for 60 mins by competition binding based scintillation counter analysis relative to control; type: cell membranes
# Sequence of 5-hydroxytryptamine receptor 2A (Homo sapiens) (P28223 whole entry): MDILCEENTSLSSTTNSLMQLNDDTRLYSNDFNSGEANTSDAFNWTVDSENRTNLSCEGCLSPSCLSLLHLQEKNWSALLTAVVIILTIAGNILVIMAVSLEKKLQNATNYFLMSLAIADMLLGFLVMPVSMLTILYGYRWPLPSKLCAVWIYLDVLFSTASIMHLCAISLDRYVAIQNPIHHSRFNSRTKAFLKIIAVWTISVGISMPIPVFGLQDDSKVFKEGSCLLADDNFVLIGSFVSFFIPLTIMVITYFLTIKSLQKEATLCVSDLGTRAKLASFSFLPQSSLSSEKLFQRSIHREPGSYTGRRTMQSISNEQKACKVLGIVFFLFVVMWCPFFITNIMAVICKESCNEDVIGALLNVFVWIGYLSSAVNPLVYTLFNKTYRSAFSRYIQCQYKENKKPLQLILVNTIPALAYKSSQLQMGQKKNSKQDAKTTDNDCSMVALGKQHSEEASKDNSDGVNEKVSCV
# [4] = target: D(2) dopamine receptor (Homo sapiens) (UniProt P14416); assay: Displacement of [3H]7-OH-DPAT from human dopamine D2 receptor expressed in HEK293 cell membrane assessed as inhibition of radioligand binding at 100 nM incubated for 60 mins by competition binding based scintillation counter analysis relative to control; type: cell membranes
# Sequence of D(2) dopamine receptor (Homo sapiens) (P14416 whole entry): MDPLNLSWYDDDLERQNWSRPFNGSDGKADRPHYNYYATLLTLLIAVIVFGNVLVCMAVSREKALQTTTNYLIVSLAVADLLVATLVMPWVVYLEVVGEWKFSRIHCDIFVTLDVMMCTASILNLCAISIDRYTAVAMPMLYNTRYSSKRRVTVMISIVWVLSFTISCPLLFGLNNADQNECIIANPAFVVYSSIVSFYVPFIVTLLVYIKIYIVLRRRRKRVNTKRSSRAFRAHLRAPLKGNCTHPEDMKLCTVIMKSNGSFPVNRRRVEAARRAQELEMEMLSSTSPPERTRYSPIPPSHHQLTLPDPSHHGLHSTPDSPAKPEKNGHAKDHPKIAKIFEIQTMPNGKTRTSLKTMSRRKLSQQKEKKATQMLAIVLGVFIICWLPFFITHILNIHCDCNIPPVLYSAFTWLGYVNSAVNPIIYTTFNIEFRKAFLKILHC
# [5] = target: T1, Alpha-1A adrenergic receptor (Homo sapiens) (UniProt P35348); assay: Antagonist activity at human alpha 1A adrenergic receptor expressed in CHO-K1 cells assessed as inhibition of phenylephrine induced […] calcium response at <= 10 uM by whole cell-based assay; type: functional; details: filed as antagonist
# T1 sequence (whole entry): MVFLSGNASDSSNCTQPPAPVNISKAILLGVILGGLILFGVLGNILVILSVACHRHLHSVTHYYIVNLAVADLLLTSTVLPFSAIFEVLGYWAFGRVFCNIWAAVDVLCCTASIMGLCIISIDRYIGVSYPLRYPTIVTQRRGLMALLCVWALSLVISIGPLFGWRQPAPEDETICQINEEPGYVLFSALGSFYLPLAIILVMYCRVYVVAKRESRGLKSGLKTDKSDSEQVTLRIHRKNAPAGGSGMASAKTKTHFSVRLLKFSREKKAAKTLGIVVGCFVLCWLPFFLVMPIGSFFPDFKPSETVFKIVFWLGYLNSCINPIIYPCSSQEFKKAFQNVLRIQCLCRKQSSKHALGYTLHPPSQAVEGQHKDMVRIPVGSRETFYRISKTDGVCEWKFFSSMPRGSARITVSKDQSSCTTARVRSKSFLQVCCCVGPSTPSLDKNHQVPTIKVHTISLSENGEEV
# [6] = system: Mus musculus; assay: Analgesic activity in thermal stimulated CD-1 mouse assessed as increase in latency to pain response at 5 mg/kg,SC administration measured after 30 mins by tail flick assay; type: functional, organism-based
# [7] = system: Mus musculus; assay: Analgesic activity in naloxone induced CD-1 mouse assessed as increase in latency to pain response at 5 mg/kg,po administration measured after 30 mins by tail flick assay; type: functional, organism-based
# [8] = system: Mus musculus; assay: Analgesic activity against formalin-induced inflammatory pain C57Bl/6 mouse model assessed as reduction in licking response at 5 mg/kg,SC pretreated for 30 min followed by formalin challenge and measured after 30 mins; type: functional, organism-based; details: time 60.0 min
# [9] = target: Sodium-dependent serotonin transporter (Homo sapiens) (UniProt P31645); assay: Displacement of [3H]-imipramine from human 5-HT transporter expressed in CHO cell membrane assessed as inhibition of radioligand binding at 200 nM incubated for 60 mins by competition binding based scintillation counter analysis relative to control; type: cell membranes
Compound,inhibition [1],inhibition [2],also measured
O=C1CN2c3c(cccc3[C@@H]3CN(CCOc4ccc(F)cc4)CC[C@@H]32)N1,inactive,–,–
CC1C(=O)Nc2cccc3c2N1[C@H]1CCN(CCCOc2ccc(F)cc2)C[C@@H]31 (stereo partly specified),inactive,–,–
CCCCN1CC[C@H]2[C@@H](C1)c1cccc3c1N2CC(=O)N3,inactive,inactive,inhibition [3]: inactive
O=C1CN2c3c(cccc3[C@@H]3CN(CCCO)CC[C@@H]32)N1,inactive,inactive,inhibition [4]: inactive
COc1ccc(OCCCN2CC[C@H]3[C@@H](C2)c2cccc4c2N3CC(=O)N4)cc1,–,inactive,inhibition [3]: inactive
Cc1cc(F)cc(C)c1OCCCN1CC[C@H]2[C@@H](C1)c1cccc3c1N2CC(=O)N3,–,inactive,inhibition [4]: inactive
NC(=O)c1cc(F)ccc1OCCCN1CC[C@H]2[C@@H](C1)c1cccc3c1N2CC(=O)N3,–,inactive,inhibition [4]: inactive
O=C1CN2c3c(cccc3[C@@H]3CN(CCCOc4ccc5c(c4)OCO5)CC[C@@H]32)N1,–,inactive,inhibition [3]: inactive
O=C1CN2c3c(cccc3[C@@H]3CN(CCCOc4ccc(F)cc4)CC[C@@H]32)N1,–,–,Activity [5]: Active
O=C1CN2c3c(cccc3[C@@H]3CN(CCCOc4ccc(Br)cc4)CC[C@@H]32)N1,–,inactive,–
O=C1CN2c3c(cccc3[C@@H]3CN(CCCCOc4ccc(F)cc4)CC[C@@H]32)N1,inactive,–,–
CN1CC[C@]23c4c5ccc(O)c4O[C@H]2[C@@H](O)C=C[C@H]3[C@H]1C5,–,–,Activity [6]: Active; Activity [7]: inactive; Activity [8]: Active
O=C1CN2c3c(cccc3[C@@H]3CN(CCCS(=O)(=O)c4ccc(F)cc4)CC[C@@H]32)N1,–,inactive,inhibition [4]: inactive; inhibition [9]: inactive
O=C1CN2c3c(cccc3[C@@H]3CN(CCCOc4ccc(O)cc4)CC[C@@H]32)N1,–,inactive,–
